Assay results taken from US11174518B2, “Method of classifying and diagnosing cancer” (Cedars-Sinai Medical Center, priority 2015, dated 2021).

Tested on: circulating tumor cells (CTC) from patients with CRPC
Test: Enzalutamide resistance of patient CTCs assigned to PCS subtypes by the 37-gene classifier
Assay type: in vivo, human
Settings: for Enzalutamide resistance / Enzalutamide resistance: proportion of CTCs from patients with enzalutamide-resistant tumors: patient CTCs
From the text: A random forest machine learning algorithm was employed to develop a diagnostic gene panel. For parameter estimation and training the model, we used the merged dataset. Initially, the model comprised of the 428 SEGs as a set of predictors and subtype label of the merged dataset was used as a response variable for model training. […] We then permuted the values for each gene across every sample and measured how much worse MSE became after the permutation. […] We analyzed single-cell RNA-seq data from 77 intact CTCs isolated from 13 patients (Miyamoto D T, Zheng […], Lee R J, Zhu H, Broderick K T, et al. RNA-Seq of single prostate CTCs implicates noncanonical Wnt signaling in antiandrogen resistance. Science 2015; 349:1351-6). Prior to the clustering analysis to investigate the expression patterns of these CTC data, the normalized read counts as read-per-million (RPM) mapped reads were transformed on a log 2 scale for each gene.

CNC(=O)c1ccc(N2C(=S)N(c3ccc(C#N)c(C(F)(F)F)c3)C(=O)C2(C)C)cc1F [Enzalutamide, enzalutamide]
OR for CTCs from patients with radiographic and/or PSA progression during enzalutamide therapy (GROUP II CTCs (high expression of PCS1-enriched genes), 5 of the 7 CTCs, 95% confidence interval 0.49-6.06): 1.74 | Enzalutamide resistance (PCS1 subtype): Yes | Enzalutamide resistance: proportion of CTCs from patients with enzalutamide-resistant tumors (PCS1 subtype (7 CTCs out of 12)): 58% | Enzalutamide resistance (PCS2 subtype): No | Enzalutamide resistance: proportion of CTCs from patients with enzalutamide-resistant tumors (PCS2 subtype (5 CTCs out of 65)): 8%
